Experimental data as given in US10265345B2 (priority 2008, dated 2019).
Read-outs that look alike come from different tables or passages of the source.

Experiments:
[1] = tested on: lactic acid in brain tissues; experiment: Level of lactic acid in brain tissues 48 hours after permanent MCAO; assay type: in vivo, Male Wistar rats; details: rat brain tissues, 3 mg/kg
[2] = tested on: acute cerebral ischemia (MCAO) in rats; assay type: in vivo, Male Wistar rats; details: 3 mg/kg, 5 doses from 2 h after surgery, 48 h
[3] = tested on: acute cerebral ischemia (MCAO) in rats; parameters: species or system Male Wistar rats; details: rat, in vivo, 3 mg/kg
[4] = tested on: superoxide dismutase (SOD); assay type: in vivo, Male Wistar rats; details: rat brain tissues, 3 mg/kg, 48 hours after permanent MCAO

CC1=NN(c2ccccc2)C(=O)C1 [Edaravone, edaravone]
Level of Lactic acid ([1]; model 0.98 ± 0.09, sham 0.37 ± 0.01): 0.64 ± 0.08 mmol/g protein
Level of Lactic acid ([1]; model 0.98 ± 0.09, sham 0.37 ± 0.01, listed as edaravone): 0.64±0.08 mmol/g protein
Scores of MCAO neurological symptoms ([2]; model group 5.3 ± 2.8): 4.3 ± 1.6
Scores of MCAO neurological symptoms ([2]; model group 5.3 ± 2.8, listed as edaravone): no significant difference
Volume (area) of cerebral infarction [3]: decreased significantly
SOD Activity [4]: 234.66 ± 15.85 U/mg pro
SOD Activity ([4]; listed as edaravone): significantly increased
